Test results from ChEMBL document CHEMBL3526097, “Preclinical disposition of GDC-0973 and prospective and retrospective analysis of human dose and efficacy predictions” (Drug Metab Dispos, 2012).

Tests used:
[1] = Tmax in cynomolgus monkey at 3 mg/kg, po by LC-MS/MS analysis; assay type: ADME, organism-based, Macaca fascicularis; set-up: dose 3 mg/kg, route oral; conditions: in vivo
[2] = AUC (infinity) in Sprague-Dawley rat at 3 mg/kg, po by LC-MS/MS analysis; assay type: ADME, organism-based; set-up: time infinity, dose 3 mg/kg, route oral; conditions: plasma
[3] = Volume of distribution at steady state in cynomolgus monkey at 3 mg/kg, iv by LC-MS/MS analysis; assay type: ADME, organism-based, Macaca fascicularis; set-up: dose 3 mg/kg, route intravenous; conditions: in vivo, read-out: Vdss
[4] = Fraction unbound in mouse brain; assay type: ADME, tissue-based
[5] = Tmax in nu/nu mouse at 3 mg/kg, po by LC-MS/MS analysis; assay type: ADME, organism-based; set-up: dose 3 mg/kg, route oral; conditions: in vivo
[6] = Cmax in cynomolgus monkey at 3 mg/kg, po by LC-MS/MS analysis; assay type: ADME, organism-based, Macaca fascicularis; set-up: dose 3 mg/kg, route oral; conditions: in vivo
[7] = Terminal half life in Beagle dog at 3 mg/kg, iv by LC-MS/MS analysis; assay type: ADME, organism-based, Canis lupus familiaris; set-up: dose 3 mg/kg, route intravenous; conditions: in vivo, read-out: beta t1/2 (converted)
[8] = Volume of distribution at steady state in Beagle dog at 3 mg/kg, iv by LC-MS/MS analysis; assay type: ADME, organism-based, Canis lupus familiaris; set-up: dose 3 mg/kg, route intravenous; conditions: in vivo, read-out: Vdss
[9] = Oral bioavailability in cynomolgus monkey at 3 mg/kg by LC-MS/MS analysis; assay type: ADME, organism-based, Macaca fascicularis; conditions: in vivo
[10] = tested on: MDR1; experiment: Efflux ratio of permeability from […] side in MDCK1 cells expressing MDR1 at 25 uM after 2 hrs by LC-MS/MS analysis; assay type: ADME, cell-based, Canis lupus familiaris; conditions: dog, MDCK-MDR1
[11] = tested on: Brain; experiment: Unbound concentration in mouse brain at 3 mg/kg after 2 hrs; assay type: ADME, organism-based; set-up: dose 3 mg/kg; conditions: in vivo
[12] = Plasma clearance in Sprague-Dawley rat at 3 mg/kg, iv by LC-MS/MS analysis; assay type: ADME, organism-based; set-up: dose 3 mg/kg, route intravenous
[13] = tested on: Mus musculus; experiment: AUC (infinity) in nu/nu mouse at 1 mg/kg, iv by LC-MS/MS analysis; assay type: ADME, organism-based, Plasma; set-up: time infinity, dose 1 mg/kg, route intravenous; conditions: in vivo
[14] = Volume of distribution at steady state in Sprague-Dawley rat at 3 mg/kg, iv by LC-MS/MS analysis; assay type: ADME, organism-based; set-up: dose 3 mg/kg, route intravenous; conditions: in vivo, read-out: Vdss
[15] = Apparent permeability from basolateral to apical side of MDCK1 cells at 10 uM after 60 mins; assay type: ADME, cell-based, Canis lupus familiaris; conditions: dog, MDCK
[16] = Antiproliferative activity against human COLO205 cells expressing B-raf V600E mutant; assay type: functional, cell-based; conditions: COLO 205
[17] = Ratio of unbound drug level in brain to plasma in mouse at 3 mg/kg after 2 hrs; assay type: ADME, organism-based; set-up: dose 3 mg/kg; conditions: read-out: BPR
[18] = Terminal half life in cynomolgus monkey at 3 mg/kg, iv by LC-MS/MS analysis; assay type: ADME, organism-based, Macaca fascicularis; set-up: dose 3 mg/kg, route intravenous; conditions: in vivo, read-out: beta t1/2 (converted)
[19] = target: Dual specificity mitogen-activated protein kinase kinase 1 (Homo sapiens, UniProt Q02750); experiment: Inhibition of MEK1 (unknown origin)
Chain of Dual specificity mitogen-activated protein kinase kinase 1 (Q02750 whole entry): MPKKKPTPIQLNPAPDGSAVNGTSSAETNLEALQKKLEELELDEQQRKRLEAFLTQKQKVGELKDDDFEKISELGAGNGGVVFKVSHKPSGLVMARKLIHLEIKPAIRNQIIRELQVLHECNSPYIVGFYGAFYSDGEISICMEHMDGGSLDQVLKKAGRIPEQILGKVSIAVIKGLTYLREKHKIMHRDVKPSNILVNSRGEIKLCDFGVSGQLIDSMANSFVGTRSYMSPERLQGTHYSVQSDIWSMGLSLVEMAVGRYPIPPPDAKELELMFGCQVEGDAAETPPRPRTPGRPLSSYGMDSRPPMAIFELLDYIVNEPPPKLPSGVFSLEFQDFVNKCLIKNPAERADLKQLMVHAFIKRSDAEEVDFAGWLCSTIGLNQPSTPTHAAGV

[20] = Apparent permeability from apical to basolateral side of MDCK1 cells at 10 uM after 60 mins; assay type: ADME, cell-based, Canis lupus familiaris; conditions: dog, MDCK
[21] = Efflux ratio of permeability from […] side in MDCK1 cells at 10 uM after 60 mins; assay type: ADME, cell-based, Canis lupus familiaris; conditions: dog, MDCK
[22] = Cmax in nu/nu mouse at 3 mg/kg, po by LC-MS/MS analysis; assay type: ADME, organism-based; set-up: dose 3 mg/kg, route oral; conditions: in vivo
[23] = Tmax in Sprague-Dawley rat at 3 mg/kg, po by LC-MS/MS analysis; assay type: ADME, organism-based; set-up: dose 3 mg/kg, route oral; conditions: in vivo
[24] = Plasma clearance in Beagle dog at 3 mg/kg, iv by LC-MS/MS analysis; assay type: ADME, organism-based, Canis lupus familiaris; set-up: dose 3 mg/kg, route intravenous
[25] = Tmax in Beagle dog at 3 mg/kg, po by LC-MS/MS analysis; assay type: ADME, organism-based, Canis lupus familiaris; set-up: dose 3 mg/kg, route oral; conditions: in vivo
[26] = tested on: Brain; experiment: Unbound AUC in mouse brain; assay type: ADME, tissue-based; conditions: in vivo
[27] = AUC (infinity) in cynomolgus monkey at 3 mg/kg, po by LC-MS/MS analysis; assay type: ADME, organism-based, Macaca fascicularis; set-up: time infinity, dose 3 mg/kg, route oral; conditions: plasma
[28] = tested on: COLO 205; experiment: Antitumor activity against human COLO205 cells expressing B-raf V600E mutant xenografted in po dosed mouse assessed as inhibition of tumor growth; assay type: functional, organism-based
[29] = Terminal half life in nu/nu mouse at 1 mg/kg, iv by LC-MS/MS analysis; assay type: ADME, organism-based; set-up: dose 1 mg/kg, route intravenous; conditions: in vivo, read-out: beta t1/2 (converted)
[30] = tested on: Rattus norvegicus; experiment: AUC (infinity) in Sprague-Dawley rat at 3 mg/kg, iv by LC-MS/MS analysis; assay type: ADME, organism-based, Plasma; set-up: dose 3 mg/kg, route intravenous, time infinity; conditions: in vivo
[31] = AUC (infinity) in nu/nu mouse at 3 mg/kg, po by LC-MS/MS analysis; assay type: ADME, organism-based; set-up: time infinity, dose 3 mg/kg, route oral; conditions: plasma
[32] = tested on: Plasma; experiment: Fraction unbound in mouse plasma at 3 mg/kg after 2 hrs; assay type: ADME, organism-based; set-up: dose 3 mg/kg; conditions: in vivo
[33] = Cmax in Sprague-Dawley rat at 3 mg/kg, po by LC-MS/MS analysis; assay type: ADME, organism-based; set-up: dose 3 mg/kg, route oral; conditions: in vivo
[34] = Terminal half life in Sprague-Dawley rat at 3 mg/kg, iv by LC-MS/MS analysis; assay type: ADME, organism-based; set-up: dose 3 mg/kg, route intravenous; conditions: in vivo, read-out: beta t1/2 (converted)
[35] = Volume of distribution at steady state in nu/nu mouse at 1 mg/kg, iv by LC-MS/MS analysis; assay type: ADME, organism-based; set-up: dose 1 mg/kg, route intravenous; conditions: in vivo, read-out: Vdss
[36] = tested on: Canis familiaris; experiment: AUC (infinity) in Beagle dog at 3 mg/kg, iv by LC-MS/MS analysis; assay type: ADME, organism-based, Canis lupus familiaris, Plasma; set-up: dose 3 mg/kg, route intravenous, time infinity; conditions: in vivo
[37] = Oral bioavailability in nu/nu mouse at 3 mg/kg by LC-MS/MS analysis; assay type: ADME, organism-based; conditions: in vivo
[38] = target: ATP-dependent translocase ABCB1 (Homo sapiens, UniProt P08183); experiment: Inhibition of MDR1 (unknown origin) at 25 uM; assay type: ADME
Chain of ATP-dependent translocase ABCB1 (P08183 whole entry): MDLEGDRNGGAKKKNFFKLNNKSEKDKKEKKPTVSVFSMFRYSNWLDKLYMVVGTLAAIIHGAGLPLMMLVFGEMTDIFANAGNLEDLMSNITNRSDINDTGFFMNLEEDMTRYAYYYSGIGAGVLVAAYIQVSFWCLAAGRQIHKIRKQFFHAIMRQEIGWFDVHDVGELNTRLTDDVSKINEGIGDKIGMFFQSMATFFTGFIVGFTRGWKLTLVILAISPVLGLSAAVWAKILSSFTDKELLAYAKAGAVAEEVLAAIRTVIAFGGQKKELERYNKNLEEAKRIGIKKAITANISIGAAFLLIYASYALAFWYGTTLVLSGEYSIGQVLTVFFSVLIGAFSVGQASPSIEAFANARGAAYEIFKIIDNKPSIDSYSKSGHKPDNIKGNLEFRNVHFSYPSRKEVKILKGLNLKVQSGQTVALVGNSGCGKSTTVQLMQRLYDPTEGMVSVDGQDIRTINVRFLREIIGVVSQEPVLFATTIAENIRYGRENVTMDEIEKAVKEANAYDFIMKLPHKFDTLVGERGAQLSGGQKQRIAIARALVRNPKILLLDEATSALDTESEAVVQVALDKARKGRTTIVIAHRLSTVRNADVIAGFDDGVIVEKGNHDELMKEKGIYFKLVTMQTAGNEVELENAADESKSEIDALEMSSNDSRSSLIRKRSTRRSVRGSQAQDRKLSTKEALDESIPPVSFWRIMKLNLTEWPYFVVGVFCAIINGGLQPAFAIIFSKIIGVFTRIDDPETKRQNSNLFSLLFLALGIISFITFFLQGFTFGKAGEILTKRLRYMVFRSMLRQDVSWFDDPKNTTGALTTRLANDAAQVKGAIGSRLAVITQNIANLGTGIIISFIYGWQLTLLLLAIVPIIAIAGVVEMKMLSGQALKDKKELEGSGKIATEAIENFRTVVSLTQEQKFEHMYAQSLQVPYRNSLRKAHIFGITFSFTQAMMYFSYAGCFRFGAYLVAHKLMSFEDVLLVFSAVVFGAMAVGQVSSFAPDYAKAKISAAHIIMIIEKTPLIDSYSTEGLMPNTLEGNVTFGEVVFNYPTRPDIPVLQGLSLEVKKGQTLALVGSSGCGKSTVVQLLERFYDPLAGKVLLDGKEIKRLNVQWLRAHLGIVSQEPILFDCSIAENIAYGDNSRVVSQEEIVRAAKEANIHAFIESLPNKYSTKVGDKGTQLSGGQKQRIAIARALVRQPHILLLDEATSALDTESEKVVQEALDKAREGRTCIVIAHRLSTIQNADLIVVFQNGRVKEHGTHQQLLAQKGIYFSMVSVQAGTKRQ

[39] = Ratio of drug level in brain to plasma in mouse at 3 mg/kg after 2 hrs; assay type: ADME, organism-based; set-up: dose 3 mg/kg; conditions: read-out: BPR
[40] = Ratio of drug level in tumor to plasma in mouse xenografted with human COLO205 cells at 3 mg/kg after 2 hrs; assay type: ADME, organism-based, COLO 205; set-up: dose 3 mg/kg
[41] = Oral bioavailability in Beagle dog at 3 mg/kg by LC-MS/MS analysis; assay type: ADME, organism-based, Canis lupus familiaris; conditions: in vivo
[42] = tested on: Cynomolgus monkey; experiment: AUC (infinity) in cynomolgus monkey at 3 mg/kg, iv by LC-MS/MS analysis; assay type: ADME, organism-based, Macaca fascicularis, Plasma; set-up: time infinity, dose 3 mg/kg, route intravenous; conditions: in vivo
[43] = Oral bioavailability in Sprague-Dawley rat at 3 mg/kg by LC-MS/MS analysis; assay type: ADME, organism-based; conditions: in vivo
[44] = tested on: MDR1; experiment: Apparent permeability from basolateral to apical side of MDCK1 cells expressing MDR1 at 25 uM after 2 hrs by LC-MS/MS analysis; assay type: ADME, cell-based, Canis lupus familiaris; conditions: dog, MDCK-MDR1
[45] = Drug uptake in tumor of mouse xenografted with human COLO205 cells at 3 mg/kg after 2 hrs; assay type: ADME, organism-based, Neoplasm, COLO 205; set-up: dose 3 mg/kg; conditions: read-out: Drug uptake

Compound `O=C(c1ccc(F)c(F)c1Nc1ccc(I)cc1F)N1CC(O)([C@@H]2CCCCN2)C1` [COBIMETINIB] has a Tmax [1] of 2 h, an AUC(0-inf) [2] of 1590 ng·h/mL and a Vd [3] of 29.6 L/kg. It also gave a fraction unbound [4] of 0.0012, a Tmax [5] of 0.25 h and a Cmax [6] of 50 ng/mL. For the same compound, the half-life [7] was 9.19 h, the Vd [8] was 3.99 L/kg and the bioavailability [9] was 19.6%. For the same compound, the efflux ratio at 2 h, 25 µM [10] was 40, the Concentration [11] was 0.1 nM and the clearance [12] was 37.8 mL/min/kg. It also gave an AUC [13] of 935 ng·h/mL, a Vd [14] of 34.6 L/kg and a Papp B→A at 1 h, 10 µM [15] of 4 ×10⁻⁶ cm/s. It also gave an IC50 [16] of 8 nM, a Kp uu at 2 h [17] of 0.018 and a half-life [18] of 10.3 h. The IC50 [19] was 4.2 nM, the Papp A→B at 1 h, 10 µM [20] was 1.39 ×10⁻⁶ cm/s and the efflux ratio at 1 h, 10 µM [21] was 3. For the same compound, the Cmax [22] was 184 ng/mL, the Tmax [23] was 3.5 h and the clearance [24] was 5.53 mL/min/kg. It also gave a Tmax [25] of 2.67 h, a fAUC [26] of 3 nM·h and an AUC(0-inf) [27] of 640 ng·h/mL. The TGI [28] was “Dose-dependent effect”, the half-life [29] was 3.92 h and the AUC [30] was 2320 ng·h/mL. The AUC(0-inf) [31] was 1510 ng·h/mL, the “Cp(f)” value [32] was 5.7 nM and the Cmax [33] was 193 ng/mL. The half-life [34] was 13.3 h, the Vd [35] was 9.4 L/kg and the AUC [36] was 17100 ng·h/mL. The bioavailability [37] was 53.9%, the “inhibition (INH)” value [38] was “Not Active” and the Kp at 2 h [39] was 0.5. The Kp at 2 h [40] was 9, the bioavailability [41] was 69.1% and the AUC [42] was 3340 ng·h/mL. It also gave a bioavailability [43] of 69%, a Papp B→A at 2 h, 25 µM [44] of 35.4 ×10⁻⁶ cm/s and a concentration at 2 h [45] of 1560 nM.
